Results taken from publication PMC3742231 (International Journal of Molecular Sciences, 2013).
Like-named read-outs stand apart in the source and are kept apart here.

What was measured:
[1] = Study 2: effect of ospemifene on bupropion pharmacokinetics; conditions: for AUCt, mean (CV%): 0-96 h; for AUCt, mean (CV%) / Cmax, mean (CV%) / t1/2, mean (CV%) / tmax, median (range) / AUC∞, mean (CV%) / CL/F, mean (CV%): 150 mg bupropion; for AUC∞, mean (CV%): N = 16
From the text: (§4) Studies 1 and 2 were open-label, two-period, single-center, Phase 1, balanced, crossover studies in healthy postmenopausal women. […] Study 3 was a Phase 1, open-label, single-center, balanced, two-period, crossover study in healthy postmenopausal women who were not homozygous for the CYP2C19*2 genotype (CYP2C19*2 indicates the CYP2C19 variant that is associated with reduced activity). In each study, equal numbers of subjects were assigned to the two different treatment sequences.
(§5) The study periods were separated by ≥14 days.
(§6) With the exception of tmax, which was analyzed using the nonparametric Wilcoxon’s test, pharmacokinetic parameters were analyzed after log-transformation using analysis of variance (ANOVA), with sequence, period, and treatment as fixed effects.

[2] = Overall safety in the three clinical studies; assay type: in vivo, human; conditions: healthy postmenopausal women, with and without ospemifene
From the text: All experiments with human subjects were based on voluntary informed consent and the clinical study protocols had appropriate ethical and regulatory approval. Subjects were asked to immediately report any significant adverse events (AEs) that occurred during the study; minor AEs were reported at clinic visits. AEs were coded and classified according to the Medical Dictionary for Regulatory Activities.

[3] = female, human, in vivo, 150 mg
From the text: as §4, §5, §6

clinical = conditions: female, human, in vivo
From the text: as §4, §5, §6

[4] = 10 mg racemic warfarin; for AUC∞, mean (CV%): N = 16
From the text: as §4
The study periods were separated by ≥3 weeks.
as §6

[5] = cited from earlier work
CYP2C8 = molecular target: T1, CYP2C8 (Homo sapiens, UniProt P10632); test: N-in-one CYP inhibition assay in human liver microsomes; type of inhibition; conditions: read-out: IC50, Amodiaquine desethylation; human liver microsomes, probe 2 μM
T1 sequence (P10632 1-490): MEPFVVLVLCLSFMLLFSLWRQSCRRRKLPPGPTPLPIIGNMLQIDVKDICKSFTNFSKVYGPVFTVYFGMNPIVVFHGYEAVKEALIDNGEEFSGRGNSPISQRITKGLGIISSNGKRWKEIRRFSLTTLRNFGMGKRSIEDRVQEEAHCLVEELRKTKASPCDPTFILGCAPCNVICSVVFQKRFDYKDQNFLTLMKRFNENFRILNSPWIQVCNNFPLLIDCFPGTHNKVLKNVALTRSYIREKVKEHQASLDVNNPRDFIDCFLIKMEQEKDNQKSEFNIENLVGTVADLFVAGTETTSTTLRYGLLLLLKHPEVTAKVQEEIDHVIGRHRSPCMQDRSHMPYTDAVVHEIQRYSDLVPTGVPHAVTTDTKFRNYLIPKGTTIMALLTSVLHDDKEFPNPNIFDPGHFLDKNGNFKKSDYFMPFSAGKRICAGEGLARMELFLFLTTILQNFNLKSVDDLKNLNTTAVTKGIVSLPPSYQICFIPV
Description: (§1) Human liver microsomes were prepared and pooled from ten human livers (HL20–24,28–32) as previously described. Human liver samples were obtained from the University Hospital of Oulu as surplus tissue from cadaver kidney transplant donors. The collection of surplus tissue was approved by the Ethics Committee of the Medical Faculty of the University of Oulu, Finland. All donors were Caucasians ranging in age from 21 to 62 years; four were female and six were male. Detailed information on each donor has been published previously. Protein concentrations were measured using the Bradford method.
(§2) In vitro inhibition of CYP isoforms was first assessed using the N-in-one approach (also called the cocktail approach). CYP-selective substrates and reactions are listed in Table 1; concentrations were roughly at or below the respective Michaelis-Menten coefficients. […] A Micromass LCT time-of-flight high-resolution mass spectrometer (Micromass Ltd., Manchester, UK) equipped with a Z-spray electrospray ionization source was used for the monitoring of CYP-selective reactions. Integrated mass chromatogram peak areas were normalized versus internal standards before comparing metabolites in different preparations. More details of the assay are available in previous publications.
(§3) Dixon, Lineweaver-Burk, Hanes, and Hofstee plots were used for the analysis of the type of inhibition.

CYP2D6 = CYP2D6 (Homo sapiens, UniProt P10635); test: as above; conditions: read-out: IC50, Dextromethorphan O-demethylation; human liver microsomes, probe 0.2 μM
Description: as §1, §2, §3

[6] = repeated oral 60-mg dosing of ospemifene, no reference given; read-out: clinical Cmax; cited from earlier work
[7] = metabolites of ospemifene; cited from earlier work
CYP2E1 = CYP2E1 (Homo sapiens, UniProt P05181); test: N-in-one CYP inhibition assay in human liver microsomes; conditions: read-out: IC50, Chlorzoxazone 6-hydroxylation; human liver microsomes, probe 6 μM
Description: as §1, §2

CYP2A6 = molecular target: T2, CYP2A6 (Homo sapiens, UniProt P11509); test: as above; conditions: read-out: IC50, Coumarin 7-hydroxylation; human liver microsomes, probe 2 μM
T2 sequence (P11509 1-494): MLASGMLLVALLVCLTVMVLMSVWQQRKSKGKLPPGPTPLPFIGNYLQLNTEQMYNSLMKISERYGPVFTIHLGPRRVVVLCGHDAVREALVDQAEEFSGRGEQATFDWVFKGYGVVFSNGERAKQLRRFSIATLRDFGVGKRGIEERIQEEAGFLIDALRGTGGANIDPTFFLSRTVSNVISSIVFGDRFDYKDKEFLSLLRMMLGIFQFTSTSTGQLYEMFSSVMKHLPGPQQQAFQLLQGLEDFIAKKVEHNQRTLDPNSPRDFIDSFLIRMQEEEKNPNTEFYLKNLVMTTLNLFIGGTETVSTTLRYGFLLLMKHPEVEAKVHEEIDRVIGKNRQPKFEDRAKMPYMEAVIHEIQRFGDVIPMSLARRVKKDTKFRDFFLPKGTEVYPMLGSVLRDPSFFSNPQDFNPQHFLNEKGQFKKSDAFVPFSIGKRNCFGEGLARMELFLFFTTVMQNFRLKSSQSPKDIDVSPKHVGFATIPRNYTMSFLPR
Description: as §1, §2

CYP2B6 = molecular target: T3, CYP2B6 (Homo sapiens, UniProt P20813); test: biochemical; conditions: read-out: IC50, Bupropion hydroxylation; human liver microsomes, probe 1 μM
T3 sequence (P20813 1-491): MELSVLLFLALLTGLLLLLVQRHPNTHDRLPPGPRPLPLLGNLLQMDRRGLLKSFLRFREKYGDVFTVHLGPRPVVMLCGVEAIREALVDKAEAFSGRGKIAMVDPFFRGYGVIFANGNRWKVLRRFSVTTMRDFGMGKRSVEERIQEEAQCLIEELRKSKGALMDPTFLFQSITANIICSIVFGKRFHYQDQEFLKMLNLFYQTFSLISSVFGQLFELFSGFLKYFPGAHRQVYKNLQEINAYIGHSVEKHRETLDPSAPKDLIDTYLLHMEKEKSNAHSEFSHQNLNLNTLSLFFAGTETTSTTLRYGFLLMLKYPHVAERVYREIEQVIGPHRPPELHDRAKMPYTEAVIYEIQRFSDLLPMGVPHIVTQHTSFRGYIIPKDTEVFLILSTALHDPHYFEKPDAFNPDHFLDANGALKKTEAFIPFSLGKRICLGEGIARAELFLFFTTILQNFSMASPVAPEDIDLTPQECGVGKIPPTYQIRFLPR
Description: as §1, §2, §3

CYP2C19 = CYP2C19 (Homo sapiens, UniProt P33261); test: biochemical; conditions: human liver microsomes, probe 2 μM
Description: as §1, §2, §3

[8] = system: CYP-mediated enzyme activities; test: N-in-one CYP inhibition assay, summary for all other CYP-mediated activities; assay type: in vitro ADME; conditions: human liver microsomes; CYPs other than those named in the paragraph
CYP2C9 = CYP2C9 (Homo sapiens, UniProt P11712); conditions: read-out: IC50, Tolbutamide methylhydroxylation; human liver microsomes, probe 4 μM
Description: as §1, §2, §3

CYP1A2 = molecular target: T4, CYP1A2 (Homo sapiens, UniProt P05177); test: biochemical; conditions: read-out: IC50, Melatonin 6-hydroxylation; human liver microsomes, probe 4 μM
T4 sequence (P05177 1-516): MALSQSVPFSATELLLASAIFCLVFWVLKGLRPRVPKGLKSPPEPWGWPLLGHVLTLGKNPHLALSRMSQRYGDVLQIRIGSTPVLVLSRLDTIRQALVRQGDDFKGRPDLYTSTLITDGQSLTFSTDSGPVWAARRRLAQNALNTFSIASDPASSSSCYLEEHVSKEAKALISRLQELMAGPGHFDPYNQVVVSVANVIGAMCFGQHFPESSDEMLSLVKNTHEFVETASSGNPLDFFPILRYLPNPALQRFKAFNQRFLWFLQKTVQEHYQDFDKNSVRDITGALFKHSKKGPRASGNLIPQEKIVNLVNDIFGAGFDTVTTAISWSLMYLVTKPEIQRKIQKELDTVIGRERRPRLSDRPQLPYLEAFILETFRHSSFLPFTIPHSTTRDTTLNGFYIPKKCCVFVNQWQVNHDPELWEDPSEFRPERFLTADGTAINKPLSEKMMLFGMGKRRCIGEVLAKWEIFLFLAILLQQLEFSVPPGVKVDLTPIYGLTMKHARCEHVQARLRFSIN
Description: as §1, §2

CYP3A4 = CYP3A4 (Homo sapiens, UniProt P08684); test: biochemical; conditions: human liver microsomes
Description: as §1, §2

[9] = Study 3: effect of ospemifene on omeprazole pharmacokinetics (metabolic ratios)
From the text: as §4
The study periods were separated by ≥14 days. In both study periods, blood samples for determination of plasma omeprazole, 5-hydroxyomeprazole, and omeprazole sulfone concentrations were collected before and at 1, 2, 3, 4, 6, and 8 h after omeprazole administration.
In Study 3, concentrations of omeprazole, 5-hydroxyomeprazole, and omeprazole sulfone were determined using a validated LC-MS/MS method. Pharmacokinetic parameters were analyzed after log-transformation using ANOVA, with sequence, period, and treatment as fixed effects. Primary pharmacokinetic parameters included the metabolic ratios of omeprazole/5-hydroxyomeprazole and omeprazole/omeprazole sulfone, based on plasma concentrations at 3 h, which reflected CYP2C19 and CYP3A4 activities, respectively.

Chain of CYP3A4 (P08684 whole entry): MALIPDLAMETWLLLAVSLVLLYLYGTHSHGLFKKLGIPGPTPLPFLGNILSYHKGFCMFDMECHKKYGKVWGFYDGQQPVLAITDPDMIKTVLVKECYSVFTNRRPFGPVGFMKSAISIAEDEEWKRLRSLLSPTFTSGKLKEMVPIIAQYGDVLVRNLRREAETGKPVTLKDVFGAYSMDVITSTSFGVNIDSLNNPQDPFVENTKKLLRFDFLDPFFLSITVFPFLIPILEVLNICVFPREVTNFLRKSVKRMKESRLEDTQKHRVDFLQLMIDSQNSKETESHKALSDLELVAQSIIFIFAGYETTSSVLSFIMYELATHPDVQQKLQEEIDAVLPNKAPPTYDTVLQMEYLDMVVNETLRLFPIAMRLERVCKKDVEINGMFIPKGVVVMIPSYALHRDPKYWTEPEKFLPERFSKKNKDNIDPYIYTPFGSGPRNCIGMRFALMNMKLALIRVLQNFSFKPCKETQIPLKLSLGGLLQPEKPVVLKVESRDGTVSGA
Chain of CYP2C19 (P33261 whole entry): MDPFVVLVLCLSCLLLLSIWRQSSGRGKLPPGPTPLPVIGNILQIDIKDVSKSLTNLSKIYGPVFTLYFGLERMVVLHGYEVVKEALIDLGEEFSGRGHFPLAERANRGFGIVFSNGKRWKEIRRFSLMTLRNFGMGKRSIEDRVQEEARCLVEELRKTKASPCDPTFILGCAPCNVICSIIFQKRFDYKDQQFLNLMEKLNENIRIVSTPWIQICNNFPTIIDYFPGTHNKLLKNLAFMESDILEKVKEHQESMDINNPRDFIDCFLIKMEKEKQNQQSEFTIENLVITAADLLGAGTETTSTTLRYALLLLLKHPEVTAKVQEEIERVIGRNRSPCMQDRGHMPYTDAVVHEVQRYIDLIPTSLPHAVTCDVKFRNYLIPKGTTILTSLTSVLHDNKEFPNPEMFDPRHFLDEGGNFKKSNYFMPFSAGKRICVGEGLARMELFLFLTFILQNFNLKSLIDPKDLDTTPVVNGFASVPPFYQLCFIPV
Chain of CYP2D6 (P10635 whole entry): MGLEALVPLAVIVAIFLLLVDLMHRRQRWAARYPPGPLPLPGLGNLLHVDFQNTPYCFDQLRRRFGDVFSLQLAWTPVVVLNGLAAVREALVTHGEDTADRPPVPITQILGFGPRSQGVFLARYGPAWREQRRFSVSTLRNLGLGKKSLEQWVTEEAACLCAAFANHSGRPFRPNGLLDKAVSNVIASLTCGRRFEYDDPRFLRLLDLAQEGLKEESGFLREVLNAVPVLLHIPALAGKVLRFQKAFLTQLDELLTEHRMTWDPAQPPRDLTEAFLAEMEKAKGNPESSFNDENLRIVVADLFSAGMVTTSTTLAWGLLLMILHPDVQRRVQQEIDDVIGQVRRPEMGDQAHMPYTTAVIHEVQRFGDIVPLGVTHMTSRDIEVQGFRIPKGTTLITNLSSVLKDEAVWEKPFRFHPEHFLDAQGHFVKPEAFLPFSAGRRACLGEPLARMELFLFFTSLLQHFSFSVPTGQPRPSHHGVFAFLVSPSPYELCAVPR
Chain of CYP2E1 (P05181 whole entry): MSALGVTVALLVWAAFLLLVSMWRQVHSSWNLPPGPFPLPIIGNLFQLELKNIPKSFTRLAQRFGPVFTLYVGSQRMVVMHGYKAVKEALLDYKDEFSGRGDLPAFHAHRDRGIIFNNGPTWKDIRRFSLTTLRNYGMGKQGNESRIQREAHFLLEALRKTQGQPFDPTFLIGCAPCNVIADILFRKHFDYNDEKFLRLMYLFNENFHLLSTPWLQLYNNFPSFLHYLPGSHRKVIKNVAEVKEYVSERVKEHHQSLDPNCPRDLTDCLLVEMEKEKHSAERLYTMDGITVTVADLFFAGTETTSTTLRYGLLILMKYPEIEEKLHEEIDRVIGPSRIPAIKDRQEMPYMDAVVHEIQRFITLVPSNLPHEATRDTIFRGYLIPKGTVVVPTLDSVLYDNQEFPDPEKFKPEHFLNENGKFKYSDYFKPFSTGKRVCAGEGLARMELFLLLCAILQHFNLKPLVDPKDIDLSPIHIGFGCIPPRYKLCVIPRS
Chain of CYP2C9 (P11712 whole entry): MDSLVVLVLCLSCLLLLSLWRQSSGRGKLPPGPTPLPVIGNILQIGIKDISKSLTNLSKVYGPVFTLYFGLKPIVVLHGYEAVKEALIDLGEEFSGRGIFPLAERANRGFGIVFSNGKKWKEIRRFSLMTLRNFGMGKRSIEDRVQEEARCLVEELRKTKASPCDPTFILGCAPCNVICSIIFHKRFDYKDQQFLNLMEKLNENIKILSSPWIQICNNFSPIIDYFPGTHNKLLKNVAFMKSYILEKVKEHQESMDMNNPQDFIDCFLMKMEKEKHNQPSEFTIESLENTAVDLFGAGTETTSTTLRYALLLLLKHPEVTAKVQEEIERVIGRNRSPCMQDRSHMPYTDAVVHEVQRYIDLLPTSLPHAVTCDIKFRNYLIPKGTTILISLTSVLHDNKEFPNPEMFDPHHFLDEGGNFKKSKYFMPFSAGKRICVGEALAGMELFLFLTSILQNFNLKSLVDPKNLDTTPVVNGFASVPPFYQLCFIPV

C[C@H]1NC(C)(C)CO[C@]1(O)c1cccc(Cl)c1 [Hydroxybupropion, hydroxybupropion]
AUCt, mean (CV%) ([1]; OSP (+)): 14.5 (31.7) μg h/mL | AUCt, mean (CV%) ([1]; OSP (−)): 14.3 (28.1) μg h/mL | Cmax, mean (CV%) ([1]; OSP (+)): 462 (29.0) ng/mL | t1/2, mean (CV%) ([1]; OSP (+)): 21.2 (18.0) h | tmax, median (range) ([1]; OSP (+)): 6.1 (5–8) h | AUC∞, mean (CV%) ([1]; OSP (+) 60 mg once daily): 15.2 (32.4) μg h/mL | Cmax, mean (CV%) ([1]; OSP (−)): 398 (30.6) ng/mL | t1/2, mean (CV%) ([1]; OSP (−)): 26.7 (18.8) h | tmax, median (range) ([1]; OSP (−)): 6.0 (5–24) h | AUC∞, mean (CV%) ([1]; OSP (−)): 15.5 (29.4) μg h/mL | Ratio of geometric least square means of AUC∞ (90% CI) ([1]; with and without ospemifene pretreatment): 0.977 (0.921–1.036)

CC(=O)CC(c1ccccc1)c1c(O)c2ccccc2oc1=O (centres unmarked) [warfarin]
Tolerability [2]: well tolerated

CC(NC(C)(C)C)C(=O)c1cccc(Cl)c1 (centres unmarked) [Bupropion, bupropion]
AUCt, mean (CV%) [3]: 0.85 (33.7) μg h/mL | AUC∞, mean (CV%) [3]: 0.90 (32.3) μg h/mL | Tolerability [2]: well tolerated | CL/F, mean (CV%) ([1]; OSP (+)): 230 (38.1) mL/h | t1/2, mean (CV%) ([1]; OSP (+)): 29.5 (26.7) h | CL/F, mean (CV%) ([1]; OSP (−)): 185 (38.1) mL/h | Tmax (clinical): 3 h | Cmax (clinical; 150 mg): 74.9 ng/mL | Tmax (clinical; 150 mg): 3.5 h | half-life (clinical; 150 mg): 30.8 h

CC(=O)C[C@@H](c1ccccc1)c1c(O)c2ccccc2oc1=O [S-Warfarin, S-warfarin]
Cmax, mean (CV%) ([4]; OSP (+)): 513 (13.3) ng/mL | tmax, median (range) ([4]; OSP (+)): 4 (2–8) h | AUC∞, mean (CV%) ([4]; OSP (+) 60 mg once daily): 19.2 (30.2) μg h/mL | Cmax, mean (CV%) ([4]; OSP (−)): 497 (14.5) ng/mL | tmax, median (range) ([4]; OSP (−)): 4 (2–6) h | AUC∞, mean (CV%) ([4]; OSP (−)): 18.5 (29.9) μg h/mL

O=C(c1ccc(OCCN2CCCCC2)cc1)c1c(-c2ccc(O)cc2)sc2cc(O)ccc12 [Raloxifene]
Decrease of the prothrombin time of patients on warfarin [5]: 10%

CC(=O)C[C@H](c1ccccc1)c1c(O)c2ccccc2oc1=O [R-Warfarin]
Cmax, mean (CV%) ([4]; OSP (+)): 538 (15.4) ng/mL | tmax, median (range) ([4]; OSP (+)): 4 (2–8) h | AUC∞, mean (CV%) ([4]; OSP (+) 60 mg once daily): 32.8 (23.1) μg h/mL | Cmax, mean (CV%) ([4]; OSP (−)): 518 (15.2) ng/mL | tmax, median (range) ([4]; OSP (−)): 4 (2–6) h | AUC∞, mean (CV%) ([4]; OSP (−)): 31.3 (21.7) μg h/mL

OCCOc1ccc(/C(=C(/CCCl)c2ccccc2)c2ccc(O)cc2)cc1 [4-Hydroxy-ospemifene, 4-hydroxyospemifene]
IC50 (CYP2C8): 27.7 µM | IC50 (CYP2D6): 25.5 µM | Cmax [6]: ~300 nM | share of the total metabolites [7]: roughly 70% | IC50 (CYP2E1): > 100 µM | IC50 (CYP2A6): > 100 µM | IC50 (CYP2B6): 26.5 µM | IC50 (CYP2C19; read-out: IC50, Omeprazole 5-hydroxylation): 15.3 µM | IC50 (CYP2C19; read-out: IC50, Omeprazole demethylation): 19.7 µM | IC50 [8]: > 25 µM | IC50 (CYP2C9): 1.1 µM | IC50 (CYP1A2): > 100 µM | IC50 (CYP3A4; read-out: IC50, Midazolam 1′-hydroxylation, probe 0.4 μM): > 100 µM | IC50 (CYP3A4; read-out: IC50, Omeprazole 3-hydroxylation, probe 2 μM): 50 µM | IC50 (CYP3A4; read-out: IC50, Omeprazole sulfoxidation, probe 2 μM): 35.9 µM | IC50 (CYP3A4; read-out: IC50, Testosterone 6β-hydroxylation, probe 1 μM): > 100 µM

COc1ccc2[nH]c([S+]([O-])Cc3ncc(C)c(OC)c3C)nc2c1 (centres unmarked) [Omeprazole, omeprazole]
Ratio ospemifene (+)/ospemifene (−) of metabolic ratio Omeprazole/5-hydroxyomeprazole (90% CI) ([9]; 3 h conc.): 0.97 (0.77–1.22) | Ratio ospemifene (+)/ospemifene (−) of metabolic ratio Omeprazole/Omeprazole sulfone (90% CI) ([9]; 3 h conc.): 0.97 (0.67–1.41) | Ratio ospemifene (+)/ospemifene (−) of metabolic ratio Omeprazole/5-hydroxyomeprazole (90% CI) ([9]; AUCt 0 to 8 h): 0.97 (0.88–1.08) | Ratio ospemifene (+)/ospemifene (−) of metabolic ratio Omeprazole/Omeprazole sulfone (90% CI) ([9]; AUCt 0 to 8 h): 1.00 (0.88–1.15) | Tolerability [2]: well tolerated
